Measurements: the supplement of paper PMC10307832

Columns and labels:
Assay in all cases: relative viability (nuclei count vs DMSO), 5 days (fraction); higher = more cells survive
GSK-J4 + OSI-027 = compound: CCOC(=O)CCNc1cc(N2CCc3ccccc3CC2)nc(-c2ccccn2)n1 [GSK-J4] + COc1cccc2cc(-c3nc([C@H]4CC[C@H](C(=O)O)CC4)n4ncnc(N)c34)[nH]c12 [OSI-027] (partner 0.5 µM)
Procedure, shortened: (§1)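 Relative viability divides the nuclei count in treated wells by that in vehicle wells. Lung cancer cell lines were seeded in 1536-well plates, dosed by pin tool the next day, and fixed and stained after 5 days in one step with final 0.05% Triton X-100, 1% formaldehyde and 1 ug/ml Hoechst. Dosing was a single drug or a fixed anchor-drug dose plus five library-drug doses (not always all listed) in √10 steps, and values are medians of duplicate plates imaged at 4×.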

AZ3146 + Luminespib = compound: CN1CCC(CC1)OC2=CC(=C(C=C2)NC3=NC=C4C(=N3)N(C(=O)N4C)C5CCCC5)OC [AZ3146] + CCNC(=O)c1noc(-c2cc(C(C)C)c(O)cc2O)c1-c1ccc(CN2CCOCC2)cc1 [Luminespib] (partner 0.01 µM)
Procedure, shortened: as §1

AZ3146 + Lapatinib = compound: CN1CCC(CC1)OC2=CC(=C(C=C2)NC3=NC=C4C(=N3)N(C(=O)N4C)C5CCCC5)OC [AZ3146] + CS(=O)(=O)CCNCc1ccc(-c2ccc3ncnc(Nc4ccc(OCc5cccc(F)c5)c(Cl)c4)c3c2)o1 [Lapatinib] (partner 2 µM)
Procedure, shortened: as §1

AZ3146 + AZD7762 = compound: CN1CCC(CC1)OC2=CC(=C(C=C2)NC3=NC=C4C(=N3)N(C(=O)N4C)C5CCCC5)OC [AZ3146] + NC(=O)Nc1cc(-c2cccc(F)c2)sc1C(=O)N[C@H]1CCCNC1 [AZD7762] (partner 0.2 µM)
Procedure, shortened: as §1

Row | Cell Line | relative viability (GSK-J4 + OSI-027; first compound 0.5 µM) | relative viability (GSK-J4 + OSI-027; first compound 1.581 µM) | relative viability (GSK-J4 + OSI-027; first compound 5 µM) | relative viability (GSK-J4 + OSI-027; first compound 15.81 µM) | relative viability (GSK-J4 + OSI-027; first compound 50 µM) | relative viability (AZ3146 + Luminespib; first compound 0.08 µM) | relative viability (AZ3146 + Luminespib; first compound 0.253 µM) | relative viability (AZ3146 + Luminespib; first compound 0.8 µM) | relative viability (AZ3146 + Luminespib; first compound 2.53 µM) | relative viability (AZ3146 + Luminespib; first compound 8 µM) | relative viability (AZ3146 + Lapatinib; first compound 0.08 µM) | relative viability (AZ3146 + Lapatinib; first compound 0.253 µM) | relative viability (AZ3146 + Lapatinib; first compound 0.8 µM) | relative viability (AZ3146 + Lapatinib; first compound 2.53 µM) | relative viability (AZ3146 + Lapatinib; first compound 8 µM) | relative viability (AZ3146 + AZD7762; first compound 0.08 µM) | relative viability (AZ3146 + AZD7762; first compound 0.253 µM) | relative viability (AZ3146 + AZD7762; first compound 0.8 µM) | relative viability (AZ3146 + AZD7762; first compound 2.53 µM) | relative viability (AZ3146 + AZD7762; first compound 8 µM)
1 | LC-2-ad | 0.828 | 0.759 | 0.659 | 0.623 | 0.528 | 0.877 | 1.16 | 1.08 | 1.09 | 1.07 | 0.828 | 1.04 | 0.907 | 0.914 | 0.631 | 0.75 | 0.841 | 0.822 | 0.886 | 0.78
2 | LCLC-97TM1 | 0.443 | 0.357 | 0.574 | 0.342 | 0.269 | 0.825 | 0.673 | 0.647 | 0.814 | 0.878 | – | – | 1.2 | 0.861 | 0.289 | 0.311 | 0.339 | 0.262 | 0.381 | 0.273
3 | LK-2 | 0.268 | 0.193 | 0.204 | 0.152 | 0.19 | 0.22 | 0.194 | 0.257 | 0.151 | 0.203 | 0.754 | 0.961 | 0.914 | 1.01 | 0.841 | – | – | 0.372 | 0.347 | 0.286
4 | LOU-NH91 | 0.749 | 0.721 | 0.56 | 0.69 | 0.792 | 0.351 | 0.405 | 0.374 | 0.377 | 0.385 | 0.969 | 0.739 | 0.692 | 0.768 | 0.777 | 0.778 | 0.755 | 0.802 | 0.775 | 0.743
5 | LU99A | 0.267 | 0.323 | – | 0.248 | 0.236 | 0.247 | 0.236 | 0.327 | 0.262 | 0.477 | 0.864 | 1.15 | 1.06 | 0.954 | 0.995 | – | 0.378 | 0.295 | 0.276 | 0.264
6 | LXF-289 | 0.783 | 0.583 | 0.53 | 0.711 | 0.52 | 0.643 | 0.691 | 0.705 | 0.772 | 0.787 | 0.846 | 0.924 | 0.889 | 0.907 | 0.908 | 1.02 | 1.16 | 1.05 | 1.1 | 1.05
7 | NCI-H23 | 0.657 | 0.363 | 0.535 | 0.41 | 0.392 | 0.218 | 0.21 | 0.241 | 0.223 | 0.226 | 1.11 | 1.22 | 1.14 | 1.31 | 0.915 | 0.157 | 0.3 | 0.27 | 0.216 | 0.163
8 | NCI-H322M | 0.556 | 0.506 | 0.637 | 0.504 | 0.49 | 0.88 | 0.847 | 0.715 | 0.924 | 0.787 | 0.72 | 0.593 | 0.609 | 0.608 | 0.584 | 0.595 | 0.529 | 0.581 | 0.825 | 0.506
9 | NCI-H358 | 0.765 | 0.68 | 0.795 | 0.504 | 0.617 | 0.407 | 0.383 | 0.51 | 0.508 | 0.394 | 0.595 | 0.471 | 0.377 | 0.384 | 0.435 | 0.346 | 0.469 | 0.363 | 0.581 | 0.313
10 | NCI-H460 | 0.586 | 0.494 | 0.537 | 0.508 | 0.522 | 0.0349 | 0.0347 | 0.0408 | 0.0305 | 0.0293 | 0.877 | 1.11 | 0.937 | 0.817 | 0.656 | 0.461 | 0.744 | 0.522 | 0.546 | 0.559
11 | NCI-H596 | 0.72 | 0.767 | 0.857 | 0.464 | 0.597 | 1.01 | 0.995 | 0.831 | 1.03 | 0.837 | 1.05 | 0.94 | 1.21 | 1.08 | 0.979 | 1.11 | 1.21 | 1.15 | 0.986 | 1.13
12 | NCI-H647 | 0.674 | 0.513 | 0.391 | 0.594 | 0.774 | 0.186 | 0.178 | 0.244 | 0.149 | 0.269 | 1.05 | 1.12 | 1.12 | 1.25 | 0.792 | 0.272 | 0.541 | 0.486 | 0.342 | 0.326
13 | NCI-H650 | 0.508 | 0.447 | 0.356 | 0.427 | 0.294 | 0.734 | 0.706 | 0.764 | 0.904 | 0.854 | 0.804 | 0.844 | 0.667 | 1.02 | 0.973 | 0.915 | 0.652 | 0.952 | 1.06 | 1.21
14 | NCI-H727 | 0.745 | 0.383 | 0.842 | 0.55 | 0.322 | 0.465 | 0.796 | 0.458 | 0.34 | 0.302 | 0.745 | 0.557 | 0.79 | 1.29 | 0.869 | 0.642 | 0.575 | 0.562 | 0.568 | 0.57
15 | NCI-H838 | 0.452 | 0.353 | – | 0.362 | 0.385 | 0.31 | 0.284 | 0.281 | 0.273 | 0.264 | 1.07 | 0.939 | 0.935 | 0.858 | 0.32 | 0.931 | 0.921 | 0.844 | 0.963 | 0.698
16 | NCI-H1355 | 0.438 | 0.316 | 0.35 | 0.29 | 0.278 | 0.744 | 0.721 | 0.724 | 0.767 | 0.766 | 0.854 | 0.951 | 0.986 | 1.03 | 0.953 | 0.621 | 0.738 | 0.676 | 0.672 | 0.551
17 | NCI-H1395 | 0.65 | 0.641 | 0.515 | 0.591 | 0.569 | 0.72 | 0.691 | 0.634 | 0.772 | 0.719 | 0.853 | 0.915 | 0.997 | 1.19 | 0.999 | 0.352 | 0.389 | – | 0.379 | 0.4
18 | NCI-H1437 | 0.899 | 0.761 | 0.806 | 0.882 | 0.648 | 1.12 | 1.15 | 1.11 | 1.15 | 1.07 | 0.708 | 0.739 | 0.829 | 0.899 | 0.519 | 0.887 | 1.2 | 1.09 | 1.14 | 1.1
19 | NCI-H1651 | 0.79 | 0.734 | 0.687 | 0.706 | 0.721 | 0.966 | 0.881 | 0.984 | 0.761 | 0.779 | 0.757 | 0.854 | 0.815 | 0.921 | 0.636 | 0.277 | 0.382 | 0.351 | 0.398 | 0.385
20 | NCI-H1666 | 0.836 | 0.738 | 1.15 | 0.763 | 0.648 | 1.08 | 1.04 | 1 | 1.04 | 0.763 | 0.681 | 0.669 | 0.694 | 0.891 | 0.536 | 0.819 | 0.806 | 0.808 | 0.74 | 0.887
21 | NCI-H1734 | 0.544 | 0.518 | 0.489 | 0.445 | 0.372 | 0.181 | 0.198 | 0.689 | 0.198 | 0.2 | 1.05 | 1.17 | 1.07 | 1.1 | 0.942 | 0.262 | 0.535 | 0.545 | 0.563 | 0.337
22 | NCI-H1755 | 0.623 | 0.468 | 0.571 | 0.553 | 0.509 | 0.415 | 0.365 | 0.537 | 0.966 | 0.696 | 1.03 | 1.05 | 0.973 | 1.05 | 1.05 | 0.502 | 0.482 | 0.455 | 0.445 | 0.519
23 | NCI-H1792 | 0.671 | – | 0.778 | 0.485 | 0.681 | 0.345 | 0.478 | 0.571 | 0.435 | 0.431 | 0.854 | 1.09 | 0.868 | 0.936 | 0.954 | 0.414 | 0.631 | 0.641 | 0.601 | 0.617
24 | NCI-H1793 | 0.36 | 0.215 | 0.258 | 0.167 | 0.2 | 0.208 | 0.173 | 0.202 | 0.145 | 0.178 | 0.649 | 0.853 | 0.492 | 0.805 | 0.497 | 0.259 | 0.397 | 0.259 | 0.229 | 0.178
25 | NCI-H1915 | 0.598 | 0.578 | – | 0.595 | 0.657 | 0.717 | 0.888 | 0.913 | 0.875 | 0.919 | 1.05 | 0.864 | 1.04 | 0.933 | 1.02 | 0.673 | 0.714 | 0.75 | 0.729 | 0.745
26 | NCI-H1944 | 0.466 | 0.399 | 0.309 | 0.296 | 0.355 | 0.617 | 0.786 | 0.777 | 0.906 | 1.06 | – | 0.801 | 0.819 | 0.837 | 0.987 | 0.311 | 0.509 | 0.482 | 0.516 | 0.469
27 | NCI-H1975 | 0.692 | 0.677 | 0.46 | 0.675 | 0.681 | 0.215 | 0.173 | 0.162 | 0.204 | 0.257 | 0.922 | 0.95 | 0.928 | 0.933 | 0.783 | 0.628 | – | 0.752 | 0.778 | 0.638
